# From US20100227859A1, “TRICYCLIC COMPOUNDS AS MATRIX METALLOPROTEINASE INHIBITORS” (priority 2007, published 2010)
# Biological target: purified human MMP-12 enzyme (Homo sapiens, UniProt P39900)
# Assay: MMP-12 FRET assay
# Assay type: biochemical
# Conditions: substrate 20 μM, room temperature
# Outline: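 Initial fluorescence rate (325/395 nm) of cleavage of MCA-Pro-Leu-Gly-Leu-Dpa(DNP)-Ala-Arg, 20 μM final, was followed for 30 min at room temperature after a 30 min enzyme–compound preincubation. Buffer: 50 mM HEPES pH 7.4, 100 mM NaCl, 5 mM CaCl2, 0.005% Brij-35, with 10% final DMSO. IC50 came from a Hill-type fit of rate versus inhibitor concentration.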
# purified human MMP-12 enzyme, sequence (P39900 106-470): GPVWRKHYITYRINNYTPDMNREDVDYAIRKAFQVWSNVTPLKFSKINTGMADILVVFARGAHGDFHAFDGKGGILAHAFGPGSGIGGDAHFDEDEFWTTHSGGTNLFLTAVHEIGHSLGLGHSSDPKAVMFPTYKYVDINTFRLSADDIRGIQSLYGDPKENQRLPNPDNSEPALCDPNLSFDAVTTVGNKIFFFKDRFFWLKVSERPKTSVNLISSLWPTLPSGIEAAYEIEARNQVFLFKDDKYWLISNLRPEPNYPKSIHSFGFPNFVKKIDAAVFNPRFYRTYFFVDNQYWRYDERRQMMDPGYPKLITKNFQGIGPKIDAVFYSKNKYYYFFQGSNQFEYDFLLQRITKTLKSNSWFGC
row,Structure (SMILES),IC50 [µM]
1,"CC(C)[C@@H](NS(=O)(=O)c1ccc2oc3cc(/C=C/C4CCCCC4)ccc3c2c1)C(=O)O [Compound 104, (R,E)-2-(7-(2-cyclohexylvinyl)dibenzo[b,d]furan-2-sulfonamido)-3-methylbutanoic acid]",0.059
2,"CC(C)[C@@H](NS(=O)(=O)c1ccc2oc3cc(-c4cc5ccccc5n4C)ccc3c2c1)C(=O)O [Compound 121, (R)-3-methyl-2-(7-(1-methyl-1H-indol-2-yl)dibenzo[b,d]furan-2-sulfonamido)butanoic acid]",0.14
3,"CC(C)[C@H](NS(=O)(=O)c1ccc2c(c1)oc1ccc(C(=N)Nc3ccccc3)cc12)C(=O)O [Compound 87, (S)-3-methyl-2-(8-(N-phenylcarbamimidoyl)dibenzo[b,d]furan-3-sulfonamido)butanoic acid]",0.019
4,"CC(C)[C@H](NS(=O)(=O)c1ccc2c(c1)sc1ccc(-c3cnn(Cc4ccccc4)c3)cc12)C(=O)O [Compound 44, (S)-2-(8-(1-benzyl-1H-pyrazol-4-yl)dibenzo[b,d]thiophene-3-sulfonamido)-3-methylbutanoic acid]",0.065
5,"CC(C)[C@@H](NS(=O)(=O)c1ccc2sc3cc(-c4nc5ccccc5s4)ccc3c2c1)C(=O)O [Compound 286, (R)-2-(7-(benzo[d]thiazol-2-yl)dibenzo[b,d]thiophene-2-sulfonamido)-3-methylbutanoic acid]",0.13
6,"CC(=O)c1ccc(-c2ccc3c(c2)oc2ccc(S(=O)(=O)N[C@@H](C(=O)O)C(C)C)cc23)s1 [Compound 105, (R)-2-(7-(5-acetylthiophen-2-yl)dibenzo[b,d]furan-2-sulfonamido)-3-methylbutanoic acid]",0.0218
7,"Cc1n[nH]c(C)c1-c1ccc2oc3cc(S(=O)(=O)N[C@H](C(=O)O)C(C)C)ccc3c2c1 [Compound 19, (S)-2-(8-(3,5-dimethyl-1H-pyrazol-4-yl)dibenzo[b,d]furan-3-sulfonamido)-3-methylbutanoic acid]",0.044
8,"CC(C)[C@@H](NS(=O)(=O)c1ccc2oc3cc(-c4ccc(C(C)(C)C)o4)ccc3c2c1)C(=O)O [Compound 240, (R)-2-(7-(5-tert-butylfuran-2-yl)dibenzo[b,d]furan-2-sulfonamido)-3-methylbutanoic acid]",0.019
9,"CC(C)[C@H](NS(=O)(=O)c1ccc2c(c1)oc1ccc(C3=NCCN3)cc12)C(=O)O [Compound 77, (S)-2-(8-(4,5-dihydro-1H-imidazol-2-yl)dibenzo[b,d]furan-3-sulfonamido)-3-methylbutanoic acid]",0.023
10,"Cc1nnc(-c2ccc3c(c2)oc2ccc(S(=O)(=O)N[C@@H](C(=O)O)C(C)C)cc23)s1 [Compound 292, (R)-3-methyl-2-(7-(5-methyl-1,3,4-thiadiazol-2-yl)dibenzo[b,d]furan-2-sulfonamido)butanoic acid]",0.043
11,"Cc1noc(C)c1-c1ccc2c(c1)oc1ccc(S(=O)(=O)N[C@@H](C(=O)O)C(C)C)cc12 [Compound 145, (R)-2-(7-(3,5-dimethylisoxazol-4-yl)dibenzo[b,d]furan-2-sulfonamido)-3-methylbutanoic acid]",0.029
12,"Cc1nc(-c2ccccc2)sc1-c1ccc2c(c1)oc1ccc(S(=O)(=O)N[C@@H](C(=O)O)C(C)C)cc12 [Compound 176, (R)-3-methyl-2-(7-(4-methyl-2-phenylthiazol-5-yl)dibenzo[b,d]furan-2-sulfonamido)butanoic acid]",0.097
13,"CC(C)[C@H](NS(=O)(=O)c1ccc2c(c1)oc1ccc(-c3ccc(C(=O)O)s3)cc12)C(=O)O [Compound 112, (S)-5-(7-(N-(1-carboxy-2-methylpropyl)sulfamoyl)dibenzo[b,d]furan-2-yl)thiophene-2-carboxylic acid]",0.052
14,"Cc1noc(C)c1-c1ccc2oc3cc(S(=O)(=O)N[C@H](C(=O)O)C(C)C)ccc3c2c1 [Compound 9, (S)-2-(8-(3,5-dimethylisoxazol-4-yl)dibenzo[b,d]furan-3-sulfonamido)-3-methylbutanoic acid]",0.0107
15,"Cc1nc(CC(C)C)sc1-c1ccc2c(c1)oc1ccc(S(=O)(=O)N[C@@H](C(=O)O)C(C)C)cc12 [Compound 245, (R)-2-(7-(2-isobutyl-4-methylthiazol-5-yl)dibenzo[b,d]furan-2-sulfonamido)-3-methylbutanoic acid]",0.013
16,"CC(C)[C@H](NS(=O)(=O)c1ccc2c(c1)oc1cc(-c3noc(-c4ccc(F)cc4)n3)ccc12)C(=O)O [Compound 188, (S)-2-(7-(5-(4-fluorophenyl)-1,2,4-oxadiazol-3-yl)dibenzo[b,d]furan-3-sulfonamido)-3-methylbutanoic acid]",0.0086
17,"CC(C)[C@@H](NS(=O)(=O)c1ccc2sc3cc(-c4ccc(Cl)o4)ccc3c2c1)C(=O)O [Compound 288, (R)-2-(7-(5-chlorofuran-2-yl)dibenzo[b,d]thiophene-2-sulfonamido)-3-methylbutanoic acid]",0.11

# The next molecules have a lower IC50 than those just listed; values first:
row,IC50 [µM],Structure (SMILES)
1,< 0.0015,"CC(C)[C@H](NS(=O)(=O)c1ccc2c(c1)oc1ccc(-c3nc4c(F)cccc4s3)cc12)C(=O)O [Compound 218, (S)-2-(8-(4-fluorobenzo[d]thiazol-2-yl)dibenzo[b,d]furan-3-sulfonamido)-3-methylbutanoic acid]"
2,< 0.0015,"Cc1c(-c2ccc3oc4cc(S(=O)(=O)N[C@H](C(=O)O)C(C)C)ccc4c3c2)cnn1-c1ccccc1 [Compound 162, (S)-3-methyl-2-(8-(5-methyl-1-phenyl-1H-pyrazol-4-yl)dibenzo[b,d]furan-3-sulfonamido)butanoic acid]"
3,< 0.0015,"CC(=O)c1ccc(-c2ccc3oc4cc(S(=O)(=O)N[C@H](C(=O)O)C(C)C)ccc4c3c2)s1 [Compound 32, (S)-2-(8-(5-acetylthiophen-2-yl)dibenzo[b,d]furan-3-sulfonamido)-3-methylbutanoic acid]"
4,0.0017,"CC(C)[C@H](NS(=O)(=O)c1ccc2c(c1)oc1ccc(-c3nc4ccc(OC(F)(F)F)cc4s3)cc12)C(=O)O [Compound 221, (S)-3-methyl-2-(8-(6-(trifluoromethoxy)benzo[d]thiazol-2-yl)dibenzo[b,d]furan-3-sulfonamido)butanoic acid]"
5,0.0028,"CC(C)[C@H](NS(=O)(=O)c1ccc2c(c1)oc1ccc(C3=NCCO3)cc12)C(=O)O [Compound 83, (S)-2-(8-(4,5-dihydrooxazol-2-yl)dibenzo[b,d]furan-3-sulfonamido)-3-methylbutanoic acid]"
6,< 0.0015,"CC(C)[C@@H](NS(=O)(=O)c1ccc2oc3cc(-c4noc(C5CCC5)n4)ccc3c2c1)C(=O)O [Compound 148, (R)-2-(7-(5-cyclobutyl-1,2,4-oxadiazol-3-yl)dibenzo[b,d]furan-2-sulfonamido)-3-methylbutanoic acid]"
7,< 0.0015,"CC(C)[C@@H](NS(=O)(=O)c1ccc2oc3cc(-c4noc(C5CC5)n4)ccc3c2c1)C(=O)O [Compound 147, (R)-2-(7-(5-cyclopropyl-1,2,4-oxadiazol-3-yl)dibenzo[b,d]furan-2-sulfonamido)-3-methylbutanoic acid]"
8,< 0.0015,"CC(C)[C@H](NS(=O)(=O)c1ccc2c(c1)oc1ccc(-c3cn[nH]c3)cc12)C(=O)O [Compound 23, (S)-2-(8-(1H-pyrazol-4-yl)dibenzo[b,d]furan-3-sulfonamido)-3-methylbutanoic acid]"
9,< 0.0015,"C#Cc1ccc2oc3cc(S(=O)(=O)N[C@H](C(=O)O)C(C)C)ccc3c2c1 [Compound 303, (S)-2-(8-ethynyldibenzo[b,d]furan-3-sulfonamido)-3-methylbutanoic acid]"
10,0.0028,"CC(C)[C@@H](NS(=O)(=O)c1ccc2oc3cc(-c4cnn(C)c4)ccc3c2c1)C(=O)O [Compound 117, (R)-3-methyl-2-(7-(1-methyl-1H-pyrazol-4-yl)dibenzo[b,d]furan-2-sulfonamido)butanoic acid]"
11,0.0045,"CC(C)[C@H](NS(=O)(=O)c1ccc2c(c1)oc1ccc(-c3ccc(-c4ccon4)s3)cc12)C(=O)O [Compound 216, (S)-2-(8-(5-(isoxazol-3-yl)thiophen-2-yl)dibenzo[b,d]furan-3-sulfonamido)-3-methylbutanoic acid]"
12,< 0.0015,"CC(C)[C@H](NS(=O)(=O)c1ccc2c(c1)oc1ccc(-c3ccc(-c4ccc(Cl)nc4)nc3)cc12)C(=O)O [Compound 59, (S)-2-(8-(6′-chloro-2,3′-bipyridin-5-yl)dibenzo[b,d]furan-3-sulfonamido)-3-methylbutanoic acid]"
13,< 0.0015,"CC(C)[C@H](NS(=O)(=O)c1ccc2c(c1)oc1ccc(/C=C/C3CCCCC3)cc12)C(=O)O [Compound 35, (S,E)-2-(8-(2-cyclohexylvinyl)dibenzo[b,d]furan-3-sulfonamido)-3-methylbutanoic acid]"
14,0.0041,"CC(C)[C@H](NS(=O)(=O)c1ccc2c(c1)oc1ccc(-c3nc4ccc(Cl)cc4s3)cc12)C(=O)O [Compound 203, (S)-2-(8-(6-chlorobenzo[d]thiazol-2-yl)dibenzo[b,d]furan-3-sulfonamido)-3-methylbutanoic acid]"
15,0.002,"CC(C)[C@H](NS(=O)(=O)c1ccc2c(c1)oc1ccc(-c3nnn(C)n3)cc12)C(=O)O [Compound 132, (S)-3-methyl-2-(8-(2-methyl-2H-tetrazol-5-yl)dibenzo[b,d]furan-3-sulfonamido)butanoic acid]"
16,0.0074,"Cc1ccc2nc(-c3ccc4c(c3)oc3ccc(S(=O)(=O)N[C@@H](C(=O)O)C(C)C)cc34)sc2c1 [Compound 298, (R)-3-methyl-2-(7-(6-methylbenzo[d]thiazol-2-yl)dibenzo[b,d]furan-2-sulfonamido)butanoic acid]"
17,< 0.0015,"CC(C)[C@H](NS(=O)(=O)c1ccc2c(c1)oc1ccc(-c3cccnc3)cc12)C(=O)O [Compound 3, (S)-3-methyl-2-(8-(pyridin-3-yl)dibenzo[b,d]furan-3-sulfonamido)butanoic acid]"
18,0.002,"CONC(=N)c1ccc2oc3cc(S(=O)(=O)N[C@H](C(=O)O)C(C)C)ccc3c2c1 [Compound 108, (S)-2-(8-(N-methoxycarbamimidoyl)dibenzo[b,d]furan-3-sulfonamido)-3-methylbutanoic acid]"
